Source: ChEMBL document CHEMBL3045349, “A comparative study on the interference of two herbicides in wheat and italian ryegrass and on their antioxidant activities and detoxification rates” (J Agric Food Chem, 2011)

Assays:
Triticum aestivum [1] = test: Increase in antioxidant enzyme system in Triticum aestivum (wheat) shoots assessed as increase in dehydroascorbate reductase activity compound administered at rate of 14 mf/flat measured 48 hr post treatment; assay type: functional
Shoot [2] = test: Drug level in Lolium multiflorum (Italian ryegrass) shoots compound administered at rate of 14 mf/flat measured 144 hr post treatment by HPLC; assay type: ADME
Triticum aestivum [3] = test: Effect on antioxidant enzyme system in Triticum aestivum (wheat) shoots assessed as ascorbate peroxidase activity per mg protein compound administered at rate of 14 mf/flat measured 48 hr post treatment (reference value: 18.4 nmol/s per mg protein); assay type: functional
Lolium multiflorum [4] = test: Effect on antioxidant enzyme system in Lolium multiflorum (Italian ryegrass) shoots assessed as glutathione reductase activity per mg protein compound administered at rate of 14 mf/flat measured 72 hr post treatment (reference value: 1.2 nmol/s per mg protein); assay type: functional
Lolium multiflorum [5] = test: Effect on photosynthetic activity in Lolium multiflorum (Italian ryegrass) shoots assessed as leaf net photosynthesis rate measured by CO2 production compound administered at rate of 14 mf/flat measured 72 hr post treatment (reference value: 4.45 umol/m2/s); assay type: functional
Triticum aestivum [6] = test: Effect on MDA content in Triticum aestivum (wheat) shoots compound administered at rate of 14 mf/flat measured 72 hr post treatment (reference value: 0.050 uM/L); assay type: functional
Lolium multiflorum [7] = test: Effect on antioxidant enzyme system in Lolium multiflorum (Italian ryegrass) shoots assessed as glutathione S-transferase activity per mg protein compound administered at rate of 14 mf/flat measured 48 hr post treatment (reference value: 0.35 nmol/s per mg protein); assay type: functional
Shoot [8] = test: Drug level in Triticum aestivum (wheat) shoots compound administered at rate of 14 mf/flat measured 72 hr post treatment by HPLC; assay type: ADME
Triticum aestivum [9] = test: Effect on antioxidant enzyme system in Triticum aestivum (wheat) shoots assessed as glutathione reductase activity per mg protein compound administered at rate of 14 mf/flat measured 24 hr post treatment (reference value: 1.1 nmol/s per mg protein); assay type: functional
Shoot [10] = test: Drug level in Lolium multiflorum (Italian ryegrass) shoots compound administered at rate of 14 mf/flat measured 96 hr post treatment by HPLC; assay type: ADME
Triticum aestivum [11] = test: Increase in antioxidant enzyme system in Triticum aestivum (wheat) shoots assessed as increase in dehydroascorbate reductase activity compound administered at rate of 14 mf/flat measured 72 hr post treatment; assay type: functional
Triticum aestivum [12] = test: Effect on antioxidant enzyme system in Triticum aestivum (wheat) shoots assessed as glutathione reductase activity per mg protein compound administered at rate of 14 mf/flat measured 72 hr post treatment (reference value: 1.1 nmol/s per mg protein); assay type: functional
Triticum aestivum [13] = test: Effect on photosynthetic activity in Triticum aestivum (wheat) shoots assessed as leaf net photosynthesis rate measured by CO2 production compound administered at rate of 14 mf/flat measured 72 hr post treatment (reference value: 1.46 umol/m2/s); assay type: functional
Shoot [14] = test: Drug level in Lolium multiflorum (Italian ryegrass) shoots compound administered at rate of 14 mf/flat measured 48 hr post treatment by HPLC; assay type: ADME
Lolium multiflorum [15] = test: Effect on MDA content in Lolium multiflorum (Italian ryegrass) shoots compound administered at rate of 14 mf/flat measured 48 hr post treatment (reference value: 0.65 uM/L); assay type: functional
Triticum aestivum [16] = test: Effect on antioxidant enzyme system in Triticum aestivum (wheat) shoots assessed as glutathione S-transferase activity per mg protein compound administered at rate of 14 mf/flat measured […] post treatment (reference value: 2.4 nmol/s per mg protein); assay type: functional
Lolium multiflorum [17] = test: Increase in glutathione S-transferase activity in Lolium multiflorum (Italian ryegrass) compound administered at rate of 14 mf/flat measured 24 hr post treatment; assay type: functional
Lolium multiflorum [18] = test: Effect on photosynthetic activity in Lolium multiflorum (Italian ryegrass) shoots assessed as dark respiration rate measured by CO2 production compound administered at rate of 14 mf/flat measured 24 hr post treatment (reference value: -1.51 umol/m2/s); assay type: functional
Triticum aestivum [19] = test: Effect on MDA content in Triticum aestivum (wheat) shoots compound administered at rate of 14 mf/flat measured 48 hr post treatment (reference value: 0.053 uM/L); assay type: functional
Lolium multiflorum [20] = test: Effect on antioxidant enzyme system in Lolium multiflorum (Italian ryegrass) shoots assessed as dehydroascorbate reductase activity per mg protein compound administered at rate of 14 mf/flat measured 24 hr post treatment (reference value: 3.9 nmol/s per mg protein); assay type: functional
Triticum aestivum [21] = test: Effect on antioxidant enzyme system in Triticum aestivum (wheat) shoots assessed as glutathione S-transferase activity per mg protein compound administered at rate of 14 mf/flat measured 24 hr post treatment (reference value: 2.7 nmol/s per mg protein); assay type: functional
Triticum aestivum [22] = test: Effect on antioxidant enzyme system in Triticum aestivum (wheat) shoots assessed as catalase activity per mg protein compound administered at rate of 14 mf/flat measured 72 hr post treatment (reference value: 0.13 nmol/s per mg protein); assay type: functional
Lolium multiflorum [23] = test: Effect on antioxidant enzyme system in Lolium multiflorum (Italian ryegrass) shoots assessed as glutathione S-transferase activity per mg protein compound administered at rate of 14 mf/flat measured 48 hr post treatment (reference value: 0.37 nmol/s per mg protein); assay type: functional
Shoot [24] = test: Drug level in Triticum aestivum (wheat) shoots compound administered at rate of 14 mf/flat measured 96 hr post treatment by HPLC; assay type: ADME
Lolium multiflorum [25] = test: Effect on antioxidant enzyme system in Lolium multiflorum (Italian ryegrass) shoots assessed as catalase activity per mg protein compound administered at rate of 14 mf/flat measured 72 hr post treatment (reference value: 0.12 nmol/s per mg protein); assay type: functional
Triticum aestivum [26] = test: Increase in antioxidant enzyme system in Triticum aestivum (wheat) shoots assessed as increase in ascorbate peroxidase activity compound administered at rate of 14 mf/flat measured 48 hr post treatment; assay type: functional
Lolium multiflorum [27] = test: Effect on antioxidant enzyme system in Lolium multiflorum (Italian ryegrass) shoots assessed as ascorbate peroxidase activity per mg protein compound administered at rate of 14 mf/flat measured 24 hr post treatment (reference value: 12.5 nmol/s per mg protein); assay type: functional
Shoot [28] = test: Drug level in Lolium multiflorum (Italian ryegrass) shoots compound administered at rate of 14 mf/flat measured 24 hr post treatment by HPLC; assay type: ADME
Lolium multiflorum [29] = test: Effect on antioxidant enzyme system in Lolium multiflorum (Italian ryegrass) shoots assessed as glutathione S-transferase activity per mg protein compound administered at rate of 14 mf/flat measured 24 hr post treatment (reference value: 0.34 nmol/s per mg protein); assay type: functional
Lolium multiflorum [30] = test: Increase in antioxidant enzyme system in Lolium multiflorum (Italian ryegrass) shoots shoots assessed as increase in glutathione reductase activity compound administered at rate of 14 mf/flat measured 24 hr post treatment; assay type: functional
Triticum aestivum [31] = test: Drug level in Triticum aestivum (wheat) compound administered at rate of 14 mf/flat measured 24 hr post treatment by HPLC; assay type: ADME, organism-based; details: in vivo
Triticum aestivum [32] = test: Effect on photosynthetic activity in Triticum aestivum (wheat) shoots assessed as leaf net photosynthesis rate measured by CO2 production compound administered at rate of 14 mf/flat measured 48 hr post treatment (reference value: 1.92 umol/m2/s); assay type: functional

SMILES	Activity (Triticum aestivum [1]) [%]	Drug uptake (Shoot [2]) [ppm]	Activity (Triticum aestivum [3]) [nmol/s/mg protein]	Activity (Lolium multiflorum [4]) [nmol/s/mg protein]	Activity (Lolium multiflorum [5]) [micromol/m2/s]	Activity (Triticum aestivum [6]) [µM]	Activity (Lolium multiflorum [7]) [nmol/s/mg protein]	Drug uptake (Shoot [8]) [ppm]	Activity (Triticum aestivum [9]) [nmol/s/mg protein]	Drug uptake (Shoot [10]) [ppm]	Activity (Triticum aestivum [11]) [%]	Activity (Triticum aestivum [12]) [nmol/s/mg protein]	Activity (Triticum aestivum [13]) [micromol/m2/s]	Drug uptake (Shoot [14]) [ppm]	Activity (Lolium multiflorum [15]) [µM]	Activity (Triticum aestivum [16]) [nmol/s/mg protein]	Activity (Lolium multiflorum [17]) [%]	Activity (Lolium multiflorum [18]) [micromol/m2/s]	Activity (Triticum aestivum [19]) [µM]	Activity (Lolium multiflorum [20]) [nmol/s/mg protein]	other results
CCNc1nc(Cl)nc(NC(C)C)n1 [ATRAZINE]	15	3.11	23.5	1.2	-1.35	0.057	0.71	1.94	1.5	4.22	21	1	0	5.9	0.85	2.5	35	-1.32	0.53	4.5	Activity (Triticum aestivum [21]): 1.7 nmol/s/mg protein; Activity (Triticum aestivum [22]): 0.12 nmol/s; Activity (Lolium multiflorum [23]): 0.46 nmol/s/mg protein; Drug uptake (Shoot [24]): 1.94 ppm; Activity (Lolium multiflorum [25]): 0.13 nmol/s/mg protein; Activity (Triticum aestivum [26]): 28%; Activity (Lolium multiflorum [27]): 15 nmol/s/mg protein; Drug uptake (Shoot [28]): 6 ppm; Activity (Lolium multiflorum [29]): 0.46 nmol/s/mg protein; Activity (Lolium multiflorum [30]): 27%; Drug uptake (Triticum aestivum [31]): 2.26 ppm; Activity (Triticum aestivum [32]): 0.22 micromol/m2/s
O=[N+]([O-])c1ccc(Oc2ccc(C(F)(F)F)cc2[N+](=O)[O-])cc1 [FLUORODIFEN]	11	0.2	20.2	1.1	4.05	0.049	1.65	0.2	1.5	0.36	45	1	1.25	1.17	0.74	2.3	97	-1.42	0.05	4.2	Activity (Triticum aestivum [21]): 2.3 nmol/s/mg protein; Activity (Triticum aestivum [22]): 0.14 nmol/s; Activity (Lolium multiflorum [23]): 0.5 nmol/s/mg protein; Drug uptake (Shoot [24]): 0.08 ppm; Activity (Lolium multiflorum [25]): 0.13 nmol/s/mg protein; Activity (Triticum aestivum [26]): 10%; Activity (Lolium multiflorum [27]): 13.9 nmol/s/mg protein; Drug uptake (Shoot [28]): 1.4 ppm; Activity (Lolium multiflorum [29]): 0.67 nmol/s/mg protein; Activity (Lolium multiflorum [30]): 72%; Drug uptake (Triticum aestivum [31]): 0.44 ppm; Activity (Triticum aestivum [32]): 2.13 micromol/m2/s
